Results as given in patent US20050154042A1, “N-alkyl pyrroles as HMG-CoA reductase inhibitors” (priority 2003, published 2005).

Structure (SMILES)	melting point [°C]
CC(C)n1c(CC[C@@H](O)C[C@@H](O)CC(=O)[O-])c(-c2ccc(F)cc2)c(-c2ccccc2)c1C(=O)Nc1cccc(S(N)(=O)=O)c1.[Na+] [Example 125, (3R,5R)-7-[3-(4-Fluoro-phenyl)-1-isopropyl-4-phenyl-5-(3-sulfamoyl-phenylcarbamoyl)-1H-pyrrol-2-yl]-3,5-dihydroxy-heptanoic Acid Sodium Salt]	227 to 229
CC(C)n1c(/C=C/[C@@H](O)C[C@@H](O)CC(=O)[O-])c(-c2ccc(F)cc2)c(-c2ccccc2)c1C(=O)Nc1cccc(S(N)(=O)=O)c1.[Na+] [Example 126, (3R,5S)-7-[3-(4-Fluoro-phenyl)-1-isopropyl-4-phenyl-5-(3-sulfamoyl-phenylcarbamoyl)-1H-pyrrol-2-yl]-3,5-dihydroxy-hept-6-enoic Acid Sodium Salt]	225 to 227
CC(C)n1c(CC[C@@H](O)C[C@@H](O)CC(=O)[O-])c(-c2ccc(F)cc2)c(-c2ccc(F)cc2)c1C(=O)Nc1ccc(OCc2ccccc2)cc1.[Na+] [Example 127]	215 to 217
CC(C)n1c(/C=C/[C@@H](O)C[C@@H](O)CC(=O)[O-])c(-c2ccc(F)cc2)c(-c2ccc(F)cc2)c1C(=O)Nc1ccccc1OCc1ccccc1.[Na+] [Example 131, (3R,5S)-7-[5-(2-Benzyloxy-phenylcarbamoyl)-3,4-bis-(4-fluoro-phenyl)-1-isopropyl-1H-pyrrol-2-yl]-3,5-dihydroxy-hept-6-enoic Acid Sodium Salt]	228 to 229
CC(C)n1c(/C=C/[C@@H](O)C[C@@H](O)CC(=O)[O-])c(-c2ccc(F)cc2)c(-c2ccc(F)cc2)c1C(=O)Nc1cccc(OCc2ccccc2)c1.[Na+] [Example 132, (3R,5 S)-7-[5-(3-Benzyloxy-phenylcarbamoyl)-3,4-bis-(4-fluoro-phenyl)-1-isopropyl-1H-pyrrol-2-yl]-3,5-dihydroxy-hept-6-enoic Acid Sodium Salt]	225 to 227
CC(C)n1c(CC[C@@H](O)C[C@@H](O)CC(=O)[O-])c(-c2ccc(F)cc2)c(-c2ccc(F)cc2)c1C(=O)Nc1ccc(O)cc1.[Na+] [Example 133, (3R,5R)-7-[3,4-Bis-(4-fluoro-phenyl)-5-(4-hydroxy-phenylcarbamoyl)-1-isopropyl-1H-pyrrol-2-yl]-3,5-dihydroxy-heptanoic Acid Sodium Salt]	228 to 230
CC(C)n1c(CC[C@@H](O)C[C@@H](O)CC(=O)[O-])c(-c2ccc(F)cc2)c(-c2ccc(F)cc2)c1C(=O)Nc1ccccc1O.[Na+] [Example 134, (3R,5R)-7-[3,4-Bis-(4-fluoro-phenyl)-5-(2-hydroxy-phenylcarbamoyl)-1-isopropyl-1H-pyrrol-2-yl]-3,5-dihydroxy-heptanoic Acid Sodium Salt]	222 to 223
CC(C)n1c(CC[C@@H](O)C[C@@H](O)CC(=O)[O-])c(-c2ccc(F)cc2)c(-c2ccc(F)cc2)c1C(=O)Nc1cccc(O)c1.[Na+] [Example 135, (3R,5R)-7-[3,4-Bis-(4-fluoro-phenyl)-5-(3-hydroxy-phenylcarbamoyl)-1-isopropyl-1H-pyrrol-2-yl]-3,5-dihydroxy-heptanoic Acid Sodium Salt]	220 to 222
COc1cccc(NC(=O)c2c(-c3ccc(F)cc3)c(-c3ccc(F)cc3)c(CC[C@@H](O)C[C@@H](O)CC(=O)[O-])n2C(C)C)c1.[Na+] [Example 136, (3R,5R)-7-[3,4-Bis-(4-fluoro-phenyl)-1-isopropyl-5-(3-methoxy-phenylcarbamoyl)-1H-pyrrol-2-yl]-3,5-dihydroxy-heptanoic Acid Sodium Salt]	215 to 217
COc1cccc(NC(=O)c2c(-c3ccc(F)cc3)c(-c3ccc(F)cc3)c(/C=C/[C@@H](O)C[C@@H](O)CC(=O)[O-])n2C(C)C)c1.[Na+] [Example 137, (3R,5 S)-7-[3,4-Bis-(4-fluoro-phenyl)-1-isopropyl-5-(3-methoxy-phenylcarbamoyl)-1H-pyrrol-2-yl]-3,5-dihydroxy-hept-6-enoic Acid Sodium Salt]	225 to 227
CC(C)n1c(CC[C@@H](O)C[C@@H](O)CC(=O)[O-])c(-c2ccc(F)cc2)c(-c2ccc(F)cc2)c1C(=O)Nc1cccc(Cl)c1.[Na+] [Example 138, (3R,5R)-7-[5-(3-Chloro-phenylcarbamoyl)-3,4-bis-(4-fluoro-phenyl)-1-isopropyl-1H-pyrrol-2-yl]-3,5-dihydroxy-heptanoic Acid Sodium Salt]	191 to 194
CC(C)n1c(/C=C/[C@@H](O)C[C@@H](O)CC(=O)[O-])c(-c2ccc(F)cc2)c(-c2ccc(F)cc2)c1C(=O)Nc1cccc(Cl)c1.[Na+] [Example 139, (3R,5S)-7-[5-(3-Chloro-phenylcarbamoyl)-3,4-bis-(4-fluoro-phenyl)-1-isopropyl-1H-pyrrol-2-yl]-3,5-dihydroxy-hept-6-enoic Acid Sodium Salt]	229 to 230
CCc1cccc(NC(=O)c2c(-c3ccc(F)cc3)c(-c3ccc(F)cc3)c(CC[C@@H](O)C[C@@H](O)CC(=O)[O-])n2C(C)C)c1.[Na+] [Example 140, (3R,5R)-7-[5-(3-Ethyl-phenylcarbamoyl)-3,4-bis-(4-fluoro-phenyl)-1-isopropyl-1H-pyrrol-2-yl]-3,5-dihydroxy-heptanoic Acid Sodium Salt]	175 to 177
CCc1cccc(NC(=O)c2c(-c3ccc(F)cc3)c(-c3ccc(F)cc3)c(/C=C/[C@@H](O)C[C@@H](O)CC(=O)[O-])n2C(C)C)c1.[Na+] [Example 141, (3R,5S)-7-[5-(3-Ethyl-phenylcarbamoyl)-3,4-bis-(4-fluoro-phenyl)-1-isopropyl-1H-pyrrol-2-yl]-3,5-dihydroxy-hept-6-enoic Acid Sodium Salt]	229 to 230
CC(C)n1c(CC[C@@H](O)C[C@@H](O)CC(=O)[O-])c(-c2ccc(F)cc2)c(-c2ccccc2)c1C(=O)Nc1cccc(C#N)c1.[Na+] [Example 142, (3R,5R)-7-[5-(3-Cyano-phenylcarbamoyl)-3-(4-fluoro-phenyl)-1-isopropyl-4-phenyl-1H-pyrrol-2-yl]-3,5-dihydroxy-heptanoic Acid Sodium Salt]	197 to 199
CC(C)n1c(/C=C/[C@@H](O)C[C@@H](O)CC(=O)[O-])c(-c2ccc(F)cc2)c(-c2ccccc2)c1C(=O)Nc1cccc(C#N)c1.[Na+] [Example 143, (3R,5S)-7-[5-(3-Cyano-phenylcarbamoyl)-3-(4-fluoro-phenyl)-1-isopropyl-4-phenyl-1H-pyrrol-2-yl]-3,5-dihydroxy-hept-6-enoic Acid Sodium Salt]	210 to 212
CC(C)n1c(CC[C@@H](O)C[C@@H](O)CC(=O)[O-])c(-c2ccc(F)cc2)c(-c2ccccc2)c1C(=O)NCc1ccc(C#N)cc1.[Na+] [Example 144, (3R,5R)-7-[5-(4-Cyano-benzylcarbamoyl)-3-(4-fluoro-phenyl)-1-isopropyl-4-phenyl-1H-pyrrol-2-yl]-3,5-dihydroxy-heptanoic Acid Sodium Salt]	178 to 180
CC(C)n1c(/C=C/[C@@H](O)C[C@@H](O)CC(=O)[O-])c(-c2ccc(F)cc2)c(-c2ccccc2)c1C(=O)NCc1ccc(C#N)cc1.[Na+] [Example 145, (3R,5S)-7-[5-(4-Cyano-benzylcarbamoyl)-3-(4-fluoro-phenyl)-1-isopropyl-4-phenyl-1H-pyrrol-2-yl]-3,5-dihydroxy-hept-6-enoic Acid Sodium Salt]	193 to 195
